According to patent US20090281110A1, “Method of Treatment” (priority 2006, published 2009):

What was measured:
[1] = test system: rat estrogen opposition model; test: Rat Model of Estrogen Opposition: Uterotrophic Model Assay; format: in vivo; conditions: 30 mg/kg/day
Procedure: A rat estrogen opposition model (Lundeen, S. G. et al., (2001) Rat Uterine Complement C3 Expression as a Model for Progesterone Receptor Modulators: Characterization of the New Progestin Trimegestone. J. Steroid Biochem. & Mol. biol. 78, 137-143, incorporated herein to the extent required to perform the present assay) was used to determine the efficacy of Example 2f at 30 mg/kg/day. This was a 48 hour rodent model involving a pre-treatment of compound followed by two days of combined estrogen (0.08 mg/kg) and compound treatment. At termination, uteri were removed from the rats weighed and sectioned for downstream biochemical analysis. Estrogen in this model was pro-inflammatory, inducing edema and infiltration of neutrophils into the endometrium causing a 4 to 5 fold increase in uterine weight. A significant effect of compound treatment on uterine weight was considered approximately a 25% decrease.

[2] = target: T1, recombinant human IL-8 type α and β receptors (Homo sapiens, UniProt P25025); test: Receptor Binding Assay ([125I] IL-8 / GRO-α displacement, CHO membranes); conditions: receptor subtype (IL-8Rα or IL-8Rβ) not given
T1 sequence (P25025 1-360): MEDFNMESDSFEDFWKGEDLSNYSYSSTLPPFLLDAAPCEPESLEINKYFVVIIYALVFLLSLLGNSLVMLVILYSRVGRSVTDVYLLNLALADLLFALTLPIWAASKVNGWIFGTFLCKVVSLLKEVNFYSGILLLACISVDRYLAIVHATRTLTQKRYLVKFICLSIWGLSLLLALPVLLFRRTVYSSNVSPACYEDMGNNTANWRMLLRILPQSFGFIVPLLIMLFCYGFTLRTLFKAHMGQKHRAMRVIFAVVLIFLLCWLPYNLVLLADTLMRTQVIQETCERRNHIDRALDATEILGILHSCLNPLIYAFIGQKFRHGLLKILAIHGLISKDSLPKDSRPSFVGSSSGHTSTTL

| IC50 [2] | Structure (SMILES) | gene expression level of MMP-9 reduced compared to vehicle control and estrogen treated rats ([1]; rat uterus) [%] | gene expression of C3 reduced compared to estrogen only treatment ([1]; rat uterus) [%] | gene expression of cfos reduced compared to estrogen only treatment ([1]; rat uterus) [%] | reduced estrogen-induced uterine wet weight ([1]; rat, 48 hour model, estrogen 0.08 mg/kg) [%+/−5%] |
| --- | --- | --- | --- | --- | --- |
|  | CN1CCN(S(=O)(=O)c2c(Cl)ccc(NC(=O)Nc3cccc(F)c3Cl)c2O)CC1.Cc1ccc(S(=O)(=O)O)cc1 [Example 2f, N-[4-chloro-2-hydroxy-3-(4-methyl-piperazine-1-sulfonyl)-phenyl]-N′-(2-chloro-3-fluorophenyl)-urea p-toluenesulfonate] | 50 | 84 | 50 | 66 |
| about 13 nM | Cl.O=C(Nc1ccc(Cl)c(S(=O)(=O)N2CCNCC2)c1O)Nc1cccc(F)c1Cl [Example 1, N-[4-chloro-2-hydroxy-3-(piperazine-1-sulfonyl)phenyl]-N′-(2-chloro-3-fluorophenyl)urea hydrochloride] |  |  |  |  |
